Assay results: US11401250B2, “Photochromic compounds for use in the treatment of eye disorders” (FONDAZIONE ISTITUTO ITALIANO DI TECNOLOGIA, priority 2018, dated 2022)

Columns and labels:
primary neurons [1] = assay: Compound localization testing by confocal microscopy (Cell Mask, Vybrant markers); type: cell-based; conditions: for coverage of the cell surface / fraction of compound located in plasma membranes and in lipid rafts: primary neurons, confocal microscopy
From the text: FIG. 4: confocal microscopy images showing the localization of the Ziapin 2 molecule in the vicinity of the plasma membranes (a) and in the lipid rafts (b) of primary neurons.
FIG. 5: confocal microscopy images showing the localization of the Ziapin 1 molecule in the vicinity of the plasma membranes (a) and in the lipid rafts (b) of primary neurons.
Molecules tend to localize in cell membranes and change their conformation. […] The targeting of both molecules at the plasma membrane level was analyzed in cultures of primary neurons using specific markers for the cell membrane (Cell Mask, FIG. 4a, FIG. 5a, respectively) or for lipid rafts, membrane areas rich in cholesterol and ion channels (Vybrant, FIG. 4b, FIG. 5b, respectively).

HEK293 cells = assay: Time-dependent fluorescence photo-switching dynamics in living HEK293 cells; type: cell-based
Protocol: FIG. 1: (a) scheme of the isomerization process of a compound according to the present invention. Absorption (b) and emission (c) spectra of the compound Ziapin 2 25 μM in DMSO. (d) photoswitching dynamics of Ziapin 2 in water, DMSO and in HEK293 cells. (e, f) absorption and photoluminescence of Ziapin 1 25 μM in DMSO (e) and evolution of the absorption peak at 470 nm by illuminating with a diode at 450 nm (f).
(§1) The Ziapin 2 molecule (FIG. 1a) in DMSO has a strong absorption peak centered at 470 nm (FIG. 1b) and a peak at 330nm, attributed respectively to the transitions n→Π* and Π→Π* of the E isomer. […] Azobenzene fluorescence is also an ideal tool for monitoring the switch behavior of photoreponsive materials, as well as the localization and photodynamics in living cells. The decrease of Ziapin 2 time-dependent fluorescence following exposure to blue light in DMSO solution (FIG. 1c) is related to the weakening of the photoluminescence of the E conformer due to the photoisomerization reaction. Time-dependent fluorescence measurements (FIG. 1d) indicate a clear “photo-switching” dynamics of azobenzene in living HEK293 cells, with estimated isomerization/relaxation degrees of 0.01 cm^2J^−1 and 0.0085s^−1. […] An analogous characterization was performed with the Ziapin 1 molecule (FIG. 1e,f).

primary neurons [2] = assay: Electrophysiology (current-clamp) on primary neurons under light stimulation; type: cell-based
Protocol: FIG. 6: electrophysiology conducted on HEK293 cells (a, b), primary neurons in the absence (c, d) or in the presence of synaptic blockers (e, f) treated with Ziapin 2 and under illumination. (a) Representative average current-clamp traces recorded from HEK293 cells incubated with DMSO 0.25% (v/v) (Ctrl; black line) or 25 μM Ziapin 2 in DMSO (gray line) and photostimulated for 20 ms (top) or 200 ms (bottom) (wavelength 470 nm, light power density of 47 mW/mm^2, shaded areas in gray). (b) Average hyperpolarization and subsequent depolarization in HEK293 cells. (c, d) Representative current-clamp traces of passive (hyperpolarization/depolarization, left) and active (action potentials, right) responses recorded from neurons incubated in DMSO 0.25% (v/v) (Ctrl; black line) or with 5 μM Ziapin 2 in DMSO (gray line) in the absence (c) or presence (e) of synaptic blockers. The duration of light stimulation (20 and 200 ms, respectively) is indicated as a shaded area (wavelength 470 nm, light power density of 20 mW/mm^2). (d, f) Quantification of the hyperpolarization (left) and depolarization (right) peak in primary neurons exposed to DMSO or Ziapin 2 in the absence (d) or presence (f) of synaptic blockers and subjected to 20 or 200 ms of light stimulation.
FIG. 7: modulation of membrane capacitance and conductance in primary neurons following light stimulation. Representative traces of capacity (a) and conductance (b) recorded in current-clamp from primary neurons incubated with 0.25% (v/v) DMSO (Ctrl; black line) or 5 μM Ziapin 2 in DMSO (gray line) in the presence of synaptic and photostimulated blockers with 20 ms (left) or 200 ms (right) (wavelength 470 nm, light power density of 20 mW/mm^2, shaded areas). (c, d) Quantification of peak capacity (c) and conductance (d) variations evoked by light stimuli of 20 and 200 ms.
FIG. 8: effect of Ziapin 1 on passive and active membrane properties in primary hippocampal neurons. […] (a) Quantification of hyperpolarization (left) and depolarization (right) in response to light stimulation for 20/200 ms. […]

[3] = Photophysical characterization (UV-Vis absorption, isomerization under blue light); type: physicochemical
From the text: as §1
The isomerization reaction for the compound NO2/1C6Py is not observed, since in this case the nitro-azobenzene having a push-pull configuration has a rapid thermal relaxation (>ns) which hinders the appearance of the absorption of the cis isomer in the investigated temporal regime (Bandara et al., Chem. Soc. Rev., 2012, 41, 1809-1825).

somatosensory cortex = assay: Cortical responses evoked by light in vivo (LFP recordings after stereotaxic injection); parameters: species or system mice
Protocol: FIG. 9: cortical responses evoked by light in vivo in the somatosensory cortex of mice exposed to Ziapin 2. (a) Schematic representation of the stereotaxic injection of Ziapin 2 (200 mM in 1 μl of 10% DMSO) in the somatosensory cortex (S1ShNc, 2 mm anterior to lambda, 2 mm lateral to the midline and −723 μm ventral to the brain surface) and of the 16-fiber optic coupled microelectrode system for photostimulation and field potential recordings (LFP). (b) Representative LFP recordings evoked in the somatosensory cortex with light stimulation of 20 and 200 ms (43 mW/mm^2) in mice injected with DMSO (black line) or Ziapin 2 (gray line). The shaded areas represent light stimulation. (c) Dose-response analysis of LFPs in mice injected with DMSO (black line) or Ziapin 2 (gray line) depending on the power and duration of photostimulation.
The objective was to investigate whether the light-dependent modulation of neuronal activity observed in vitro occurred also in vivo. The electrophysiological recordings were obtained by implanting an array of 16 microelectrodes coupled to an optical fiber for photostimulation. […] The response peaked at around 200 ms following the light stimulus (FIGS. 9c and d).

| strong absorption peak ([3]; in DMSO, E isomer, transition n→Π*) [nm] | absorption peak ([3]; in DMSO, E isomer, transition Π→Π*) [nm] | diameter of the area of diffusion and absorption of the molecule by cortical cells (somatosensory cortex; 1 μl in the somatosensory cortex, fluorescence analysis) | trans-cis isomerization reaction in UV-Vis absorption spectra ([3]; 470 nm, FIG. 18) | SMILES | localization at the lipid rafts, Ziapin 2 compared with Ziapin 1 (primary neurons [1]; primary neuron cultures exposed to compound) | coverage of the cell surface (primary neurons [1]) | fraction of compound located in plasma membranes and in lipid rafts (primary neurons [1]) | estimated isomerization degree (HEK293 cells) [cm^2J^−1] | estimated relaxation degree (HEK293 cells) [s⁻¹] | membrane potential response to the light stimulus (primary neurons [2]; 20 or 200 ms light) | capacity and conductivity of the membrane under light stimulation compared to the values in the dark (primary neurons [2]; synaptic blockers) | time of response peak following the light stimulus (somatosensory cortex; LFP, somatosensory cortex) | LFP changes with respect to DMSO alone (somatosensory cortex; absence of the light stimulus and highest power used (160 mW/mm^2)) | LFP response compared with DMSO (somatosensory cortex; higher power densities) | cortical activity evaluated in terms of field potentials (LFP) (somatosensory cortex; optical stimulation 20 and 200 ms, 472 nm laser, different intensities) | LFP response compared with animals treated with DMSO (somatosensory cortex; stimulations at 25 and 43 mW/mm^2, 20 ms illumination) | modulation of passive and active membrane properties following light stimulation (primary neurons [2]; compared with Ziapin 2) |
| --- | --- | --- | --- | --- | --- | --- | --- | --- | --- | --- | --- | --- | --- | --- | --- | --- | --- |
| 470 | 330 | about 1 mm |  | c1cc[n+](CCCCCCN(CCCCCC[n+]2ccccc2)c2ccc(N=Nc3ccc(N4CCCCCC4)cc3)cc2)cc1 [Ziapin 2] | considerably more marked | about 20% | about 70% | 0.01 | 0.0085 | hyperpolarization is followed by a depolarization | significant decrease | around 200 ms | No significant changes | significantly higher | significant activation | significantly different |  |
|  |  |  |  | c1cc[n+](CCCCCCNc2ccc(N=Nc3ccc(N4CCCCCC4)cc3)cc2)cc1 [Ziapin 1] |  | about 20% | less than 50% |  |  |  |  |  |  |  |  |  | lower modulation effect |
|  |  |  | not observed | O=[N+]([O-])c1ccc(N=Nc2ccc(NCCCCCC[n+]3ccccc3)cc2)cc1 [NO2/1C6Py] |  |  |  |  |  |  |  |  |  |  |  |  |  |
